Legend:
Format in all cases: cell-based
lung carcinoma cell = experiment: Activity against lung carcinoma cells; details: lung carcinoma cell growth; text summary of Tables 14A-14C
Method: (§1) Antitumor activity of the compounds and doxorubicin as a positive control was assessed by using the CellTiter-Blue Cell Viability Assay (Promega, #G8082) or CellTiter-Glow® Luminescent Cell Viability assay (Promega #G7572) according to the manufacturer's instructions. The compounds were tested at 5 or 6 concentrations in half-log increments (highest concentration 30 μM or 100 μM) in duplicate or triplicate well conditions.
(§2) Tumor cells were grown at 37° C. in a humidified atmosphere with 5% CO2 in RPMI 1640 or DMEM medium, supplemented with 10% (v/v) fetal calf serum and 50 μg/ml gentamicin for up to 20 passages, and were passaged once or twice weekly. Cells were harvested using TrypLE or PBS buffer containing 1 mM EDTA, and the percentage of viable cells is determined using a CASY Model TI cell counter (OMNI Life Science). Cells were harvested from exponential phase cultures, counted and plated in 96 well flat-bottom microtiter plates at a cell density depending on the cell line's growth rate (4,000-20,000 cells/well depending on the cell line's growth rate, up to 60,000 for hematological cancer cell lines) in RPMI 1640 or DMEM medium supplemented with 10% (v/v) fetal calf serum and 50 μg/ml gentamicin (140 μl/well). Cultures were incubated at 37° C. and 5% CO2 in a humidified atmosphere. After 24 h, 10 μl of test compounds or control medium were added, and left on the cells for another 72 h. Compounds were serially diluted in DMSO, transferred in cell culture medium, and added to the assay plates. The DMSO concentration was kept constant at <0.3% v/v across the assay plate. Viability of cells was quantified by the CellTiter-Blue® cell viability assay (Promega G8081) or CellTiter-Glow® Luminescent Cell Viability assay (Promega #G7572). Fluorescence (FU) was measured by using the EnSpire® multimode plate reader (Perkin Elmer) (excitation X=570 nm, emission λ=600 nm). Luminescence was measured with a microplate luminometer (Promega or PerkinElmer).
(§3) Sigmoidal concentration-response curves were fitted to the data points (test-versus-control, T/C values) obtained for each tumor model using 4 parameter non-linear curve fit (Charles River DRS Datawarehouse Software) or with GraphPad prism 5.02 software. IC50 values are reported as absolute IC50 values, being the concentration of test compound at the intersection of the concentration-response curves with T/C=50% Cell lines tested are presented in Table 1.

NCI-H460 = experiment: Cell viability assay (CellTiter-Blue/CellTiter-Glow); details: Homo sapiens; lung carcinoma cell line NCI-H460; absolute IC50; 72 h
Method: as §1, §2, §3

SK-OV-3 = experiment: as above; details: Homo sapiens; ovarian carcinoma cell line SK-OV-3; absolute IC50; 72 h
Method: as §1, §2, §3

CALU-6 = experiment: as above; details: Homo sapiens; lung carcinoma cell line CALU-6; absolute IC50; 72 h
Method: as §1, §2, §3

HCT-15 = experiment: as above; details: Homo sapiens; colon carcinoma cell line HCT-15; absolute IC50; 72 h
Method: as §1, §2, §3

K-562 = experiment: as above; details: Homo sapiens, K562; leukaemia cell line K-562; absolute IC50; 72 h
Method: as §1, §2, §3

H1299 = experiment: as above; details: Homo sapiens, NCI-H1299; lung carcinoma cell line H1299; absolute IC50; 72 h
Method: as §1, §2, §3

A549 = experiment: as above; details: Homo sapiens; lung carcinoma cell line A549; absolute IC50; 72 h
Method: as §1, §2, §3

SF-268 = experiment: as above; details: Homo sapiens; brain carcinoma cell line SF-268; absolute IC50; 72 h
Method: as §1, §2, §3

HT-29 = experiment: as above; details: Homo sapiens; colon carcinoma cell line HT-29; absolute IC50; 72 h
Method: as §1, §2, §3

Mia-Pa-Ca-2 = experiment: as above; details: Homo sapiens, MIA PaCa-2; pancreatic carcinoma cell line Mia-Pa-Ca-2; absolute IC50; 72 h
Method: as §1, §2, §3

U-87 = experiment: as above; details: Homo sapiens, U-87 MG; brain carcinoma cell line U-87; absolute IC50; 72 h
Method: as §1, §2, §3

OVCAR-3 = experiment: as above; details: Homo sapiens; ovarian carcinoma cell line OVCAR-3; absolute IC50; 72 h
Method: as §1, §2, §3

lymphoma PDX = experiment: Activity against lymphoma PDX; details: lymphoma PDX growth; Table 17
Method: (§4) PDX-derived cell cultures were obtained from tumors explanted from mice and isolated by mechanical and enzymatic dissociation. […] Cells were harvested and seeded in 96-wells plates at a density of 1.25 to 5×10^3 cells/well for cytotoxicity assays. Cells were incubated 48 h at 37° C. prior to addition of test molecules and vehicle (DMSO, 0.1%) at desired final concentrations. Cell viability was assessed before drugs' addition (To) and 5 days after test molecules addition by measuring ATP cell content using CellTiter-Glo® Luminescent Cell Viability Assay (Promega) according to the manufacturer's instructions. Luciferase activity was measured on a luminometer (PerkinElmer® EnVision™). Each concentration of compounds was tested in triplicate.
(§5) Viability was calculated as a percentage of ATP value compared to vehicle treated controls.
(§6) For PDX primary cell cultures, the tumour tissue was washed with PBS containing antibiotic-antimycotic and non-tumour tissue and necrotic tumour tissues were separated. The tumour tissue was transferred to a new dish and cut into 1-2 mm^3 fragments, resuspended in RPMI-1640 medium and centrifuged at 1,200 rpm for 6 min at room temperature. The pelleted material was resuspended with 15 mL of Tumour Cell Digestion Solution and incubated at 37° C. for 1 hour with agitation. Following further addition of media, centrifugation and passage through a […] cell strainer, the homogenous cell mixture was layered onto 15 mL of Ficoll-Paque PLUS in a 50 mL conical tube and centrifuged for 15 min at 1,600 rpm. The interface cells were collected, washed with media, separated by centrifugation at 1,200 rpm. The cell pellet was resuspended in serum free media supplemented with growth factors. 10,000 cells/wells were plated in a 96 well plate and incubated at 37° C., 5% CO2, 95% air and 100% relative humidity overnight. The cytotoxicity assay was conducted as above. IC50 values represent absolute IC50.

bile duct PDX = experiment: Activity against bile duct PDX; details: bile duct PDX growth; summary of Table 3
Method: as §4, §5, §6

KM-12 = experiment: Cell viability assay (CellTiter-Blue/CellTiter-Glow); details: Homo sapiens, KM12; colon carcinoma cell line KM-12; absolute IC50
Method: as §1, §2, §3

Row | SMILES | IC50 (lung carcinoma cell) | IC50 (NCI-H460) | IC50 (SK-OV-3) | IC50 (CALU-6) | IC50 (HCT-15) | IC50 (K-562) | IC50 (H1299) | IC50 (A549) | IC50 (SF-268) | IC50 (HT-29) | IC50 (Mia-Pa-Ca-2) | IC50 (U-87) | IC50 (OVCAR-3) | IC50 (lymphoma PDX) | IC50 (bile duct PDX) | IC50 (KM-12)
1 | O=c1cc(-c2ccc(CCCC[P+](c3ccccc3)(c3ccccc3)c3ccccc3)cc2)oc2c(O)c(O)ccc12 [SND118, 4-[4-(7,8-dihydroxy-4-oxo-chromen-2-yl)phenyl]butyltriphenyl-phosphonium bromide] | < 20 µM | 0.29 µM | 6.35 µM | 1.47 µM | 3.3 µM | 0.14 µM | 1.28 µM | 12.5 µM | 15.6 µM | 10.3 µM | 1.9 µM | 1.76 µM | 7.3 µM | – | – | –
2 | O=c1cc(-c2ccc(CCCC[P+](c3ccccc3)(c3ccccc3)c3ccccc3)cc2)oc2c3c(ccc12)OCO3.[Br-] [SND123, 4-[4-(6-oxo-[1,3]dioxolo[4,5-h]chromen-8-yl)phenyl]butyl-triphenylphosphonium bromide] | < 20 µM | 5.04 µM | – | 1.14 µM | 9.3 µM | – | – | 8.08 µM | 3.15 µM | 9.3 µM | 1.32 µM | 0.87 µM | 2.36 µM | < 5 µM | < 20 µM | 3 µM
3 | CCNC(=O)Oc1ccc2c(=O)cc(-c3ccc(CCCC[P+](c4ccccc4)(c4ccccc4)c4ccccc4)cc3)oc2c1OC(=O)NCC.[Br-] [SND124, 4-[4-[7,8-Bis(ethylcarbamoyloxy)-4-oxo-chromen-2-yl]phenyl]-butyltriphenylphosphonium bromide] | < 20 µM | – | 3.4 µM | – | 10 µM | 0.02 µM | 4.27 µM | 11.2 µM | – | 2.96 µM | 4.8 µM | 1.18 µM | – | < 5 µM | < 20 µM | 2.7 µM
4 | CCNC(=O)Oc1ccc2c(=O)cc(-c3ccc(CCCC[P+](c4ccccc4)(c4ccccc4)c4ccccc4)cc3)oc2c1O.[Br-] [SND126A, 4-[4-[7-(Ethylcarbamoyloxy)-8-hydroxy-4-oxo-chromen-2-yl]phenyl]butyltriphenylphosphonium bromide] | – | – | – | – | – | – | – | – | 10.7 µM | – | 0.96 µM | – | 6.54 µM | < 5 µM | < 20 µM | 3.2 µM
5 | CC(C)NC(=O)Oc1ccc2c(=O)cc(-c3ccc(CCCC[P+](c4ccccc4)(c4ccccc4)c4ccccc4)cc3)oc2c1O [SND127, 4-[4-[7-(Isopropylcarbamoyloxy)-8-hydroxy-4-oxo-chromen-2-yl]phenyl]butyltriphenylphosphonium bromide] | < 20 µM | 5.58 µM | 11.5 µM | 7.13 µM | – | 1.23 µM | 12.7 µM | 5.3 µM | 11.9 µM | 6.4 µM | 1.81 µM | 3.8 µM | 5.7 µM | – | < 20 µM | –
6 | COc1c(O)ccc2c(=O)cc(-c3ccc(CCCC[P+](c4ccccc4)(c4ccccc4)c4ccccc4)cc3)oc12.[Br-] [SND140, (4-(4-(7-hydroxy-8-methoxy-4-oxo-4H-chromen-2-yl)phenyl)butyl)triphenylphosphonium bromide] | < 20 µM | 10.8 µM | – | 3.8 µM | – | – | – | – | 9.5 µM | 14.2 µM | – | 5.4 µM | 8.87 µM | < 5 µM | < 20 µM | 5.6 µM

Source: patent US20240209011A1, “HETEROAROMATIC PHOSPHONIUM SALTS FOR TREATING CANCER” (FLORATEK PHARMA S.A., priority 2021, published 2024)
